# Reference: ChEMBL document CHEMBL1201862, “PubChem BioAssay data set” (2004)
# Active and inactive are the calls of the source.
# Experiments:
# [1] = molecular target: T1, DNA repair and recombination protein RAD54-like (Homo sapiens, UniProt Q92698); assay: inhibitors of human RAD54 branch migration, confirmation, biochemical, fluorescence, cherry-picked samples, dose series (AID 651657); format: functional
# T1 sequence (Q92698 whole entry): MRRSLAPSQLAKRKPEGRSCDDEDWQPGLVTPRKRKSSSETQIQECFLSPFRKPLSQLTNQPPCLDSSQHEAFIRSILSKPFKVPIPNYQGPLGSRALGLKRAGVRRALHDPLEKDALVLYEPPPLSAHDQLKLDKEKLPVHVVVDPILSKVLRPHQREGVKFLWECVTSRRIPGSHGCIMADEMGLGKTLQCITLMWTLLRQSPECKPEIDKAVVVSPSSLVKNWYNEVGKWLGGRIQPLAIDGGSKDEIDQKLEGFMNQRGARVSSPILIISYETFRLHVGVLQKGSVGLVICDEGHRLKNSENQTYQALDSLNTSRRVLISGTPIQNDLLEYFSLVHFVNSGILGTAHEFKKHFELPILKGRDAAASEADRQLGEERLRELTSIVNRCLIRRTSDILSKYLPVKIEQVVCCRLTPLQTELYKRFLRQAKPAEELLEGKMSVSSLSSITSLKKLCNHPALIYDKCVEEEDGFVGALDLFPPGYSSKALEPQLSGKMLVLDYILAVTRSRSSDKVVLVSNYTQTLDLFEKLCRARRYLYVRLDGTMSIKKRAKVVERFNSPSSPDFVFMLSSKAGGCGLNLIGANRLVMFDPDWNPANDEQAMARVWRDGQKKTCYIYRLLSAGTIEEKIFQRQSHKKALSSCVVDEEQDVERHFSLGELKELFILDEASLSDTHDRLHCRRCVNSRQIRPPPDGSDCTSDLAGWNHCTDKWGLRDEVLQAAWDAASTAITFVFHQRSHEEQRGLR
# [2] = molecular target: T2, Endoribonuclease toxin MazF (Escherichia coli K-12, UniProt P0AE70); assay: MazF toxin RNase activators, dose response, biochemical, fluorescence, single-stranded RNA substrate, uHTS hits (AID 588481); format: functional
# T2 sequence (P0AE70 whole entry): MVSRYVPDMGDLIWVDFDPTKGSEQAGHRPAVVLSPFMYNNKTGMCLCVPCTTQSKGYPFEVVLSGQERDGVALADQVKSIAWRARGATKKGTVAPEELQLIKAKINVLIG
# [3] = molecular target: T2, Endoribonuclease toxin MazF; assay: fluorescent RNA oligo signal without MazF, dose response, counter-screen for MazEF activator project, biochemical, fluorescence, single-stranded RNase substrate (AID 588502); format: functional
# [4] = molecular target: T3, RNA-binding protein pos-1 (Caenorhabditis elegans, UniProt G5EF15); assay: inhibitors of POS-1/mex-3 RNA binding, dose response, biochemical, fluorescence polarization (AID 1964);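 further: purified POS-1 fused to maltose binding protein made in E. coli; potency of compounds blocking POS-1 binding to fluorescent RNA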
# T3 sequence (G5EF15 whole entry): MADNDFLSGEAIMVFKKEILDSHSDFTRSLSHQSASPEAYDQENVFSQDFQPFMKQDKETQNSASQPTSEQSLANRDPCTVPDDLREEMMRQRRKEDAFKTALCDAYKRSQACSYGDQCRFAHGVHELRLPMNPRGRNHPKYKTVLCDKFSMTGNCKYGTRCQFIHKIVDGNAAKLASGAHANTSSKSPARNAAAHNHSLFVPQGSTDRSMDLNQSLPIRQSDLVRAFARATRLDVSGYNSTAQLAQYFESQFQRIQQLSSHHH
# [5] = molecular target: T4, Zinc finger protein mex-5 (Caenorhabditis elegans, UniProt Q9XUB2); assay: MEX-5/TCR-2 RNA interaction inhibitors, dose response, biochemical, C. elegans, fluorescence polarization (AID 1960)
# T4 sequence (Q9XUB2 whole entry): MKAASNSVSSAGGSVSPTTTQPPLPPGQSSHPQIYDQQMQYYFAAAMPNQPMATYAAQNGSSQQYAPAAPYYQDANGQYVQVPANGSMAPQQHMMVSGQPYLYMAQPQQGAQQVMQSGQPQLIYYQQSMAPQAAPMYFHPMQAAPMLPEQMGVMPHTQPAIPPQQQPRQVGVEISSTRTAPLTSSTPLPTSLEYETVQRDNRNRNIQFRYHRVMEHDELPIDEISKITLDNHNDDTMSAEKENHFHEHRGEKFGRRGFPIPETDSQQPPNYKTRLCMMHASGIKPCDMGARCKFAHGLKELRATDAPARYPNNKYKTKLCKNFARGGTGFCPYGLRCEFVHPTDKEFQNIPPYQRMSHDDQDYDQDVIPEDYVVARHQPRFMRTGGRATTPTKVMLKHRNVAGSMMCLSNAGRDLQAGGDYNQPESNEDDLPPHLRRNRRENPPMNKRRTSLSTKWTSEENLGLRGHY
# [6] = inhibitors of intracellular T. cruzi replication, confirmation, NIH3T3 host cells, beta-gal luminescence (AID 2044); format: functional, cell-based;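 further: intracellular parasites grown in NIH/3T3 mouse fibroblasts as host cells; luminescent beta-galactosidase reporter signal from transgenic T. cruzi replicating inside host cells; inhibitors lower the luminescence signal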
# [7] = microbe, parasite or virus in culture; format: functional; details: Mycobacterium tuberculosis
# [8] = cytotoxicity toward NIH3T3 fibroblasts, dose response, counter-screen, cell-based, ATP luminescence, mouse fibroblasts (AID 2010); format: functional;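 further: cells exposed to compound for about 90 hours before reading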
# [9] = molecular target: T5, Replicative DNA helicase DnaB (Mycobacterium tuberculosis, UniProt P9WMR3); assay: DnaB intein splicing inhibitors, dose response, biochemical, cell-free fluorescence (AID 449749); format: functional
# T5 sequence (P9WMR3 whole entry): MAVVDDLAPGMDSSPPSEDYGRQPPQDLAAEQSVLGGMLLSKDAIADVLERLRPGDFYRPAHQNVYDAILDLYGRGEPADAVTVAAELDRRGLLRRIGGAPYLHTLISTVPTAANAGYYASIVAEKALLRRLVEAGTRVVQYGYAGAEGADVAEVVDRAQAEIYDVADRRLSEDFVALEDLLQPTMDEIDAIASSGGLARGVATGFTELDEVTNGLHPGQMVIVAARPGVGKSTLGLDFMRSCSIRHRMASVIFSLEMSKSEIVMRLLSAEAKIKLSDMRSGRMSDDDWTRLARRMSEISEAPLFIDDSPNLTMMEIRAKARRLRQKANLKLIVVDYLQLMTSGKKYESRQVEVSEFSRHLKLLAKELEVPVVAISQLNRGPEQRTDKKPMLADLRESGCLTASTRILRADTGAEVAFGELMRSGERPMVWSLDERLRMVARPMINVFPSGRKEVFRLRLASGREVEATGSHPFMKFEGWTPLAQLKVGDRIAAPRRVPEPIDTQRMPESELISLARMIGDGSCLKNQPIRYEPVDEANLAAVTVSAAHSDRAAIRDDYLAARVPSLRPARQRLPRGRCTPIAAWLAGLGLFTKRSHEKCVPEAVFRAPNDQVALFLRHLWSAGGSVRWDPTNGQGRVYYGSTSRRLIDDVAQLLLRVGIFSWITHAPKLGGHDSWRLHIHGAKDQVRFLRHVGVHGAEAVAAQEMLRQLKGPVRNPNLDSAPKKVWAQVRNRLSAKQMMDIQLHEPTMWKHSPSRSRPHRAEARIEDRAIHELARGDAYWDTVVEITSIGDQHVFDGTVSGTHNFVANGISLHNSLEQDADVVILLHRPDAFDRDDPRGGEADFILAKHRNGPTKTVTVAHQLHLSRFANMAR
# [10] = molecular target: T6, Protein RecA (Mycobacterium tuberculosis, UniProt P9WHJ3); assay: Fluorescence Cell-Free Homogeneous Dose Retest to Identify Inhibitors of RecA-Intein Splicing Activity. [Related pubchem assays (depositor defined):AID2097, AID2223, AID489010, AID492950]; format: functional
# T6 sequence (P9WHJ3 whole entry): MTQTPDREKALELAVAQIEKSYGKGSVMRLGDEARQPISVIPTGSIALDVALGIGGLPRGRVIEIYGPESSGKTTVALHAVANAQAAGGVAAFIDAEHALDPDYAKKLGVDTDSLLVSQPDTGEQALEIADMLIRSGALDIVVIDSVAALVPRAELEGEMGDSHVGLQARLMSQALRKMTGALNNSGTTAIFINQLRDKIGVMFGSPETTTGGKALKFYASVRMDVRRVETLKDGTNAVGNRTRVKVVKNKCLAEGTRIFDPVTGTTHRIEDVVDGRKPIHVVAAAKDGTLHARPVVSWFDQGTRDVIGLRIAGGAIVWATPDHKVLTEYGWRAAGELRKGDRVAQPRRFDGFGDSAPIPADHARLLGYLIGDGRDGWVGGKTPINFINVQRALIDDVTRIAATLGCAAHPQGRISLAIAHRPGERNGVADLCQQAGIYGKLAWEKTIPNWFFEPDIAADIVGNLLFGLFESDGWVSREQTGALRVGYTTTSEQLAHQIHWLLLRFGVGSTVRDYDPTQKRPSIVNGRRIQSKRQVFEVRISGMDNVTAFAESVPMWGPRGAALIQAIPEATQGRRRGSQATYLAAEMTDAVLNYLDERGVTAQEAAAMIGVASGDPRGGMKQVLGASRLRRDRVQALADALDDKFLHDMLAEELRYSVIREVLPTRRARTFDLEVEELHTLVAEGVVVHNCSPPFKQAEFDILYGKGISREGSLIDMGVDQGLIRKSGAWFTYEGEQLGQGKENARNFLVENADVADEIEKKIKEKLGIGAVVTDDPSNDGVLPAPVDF
# [11] = molecular target: Peroxisome proliferator-activated receptor gamma/Nuclear receptor coactivator 1 (Homo sapiens, UniProt P37231); assay: TR-FRET dose response biochemical High Throughput Screening assay for agonists of the steroid receptor coactivator 1 (SRC-1) recruitment by the peroxisome proliferator-activated receptor gamma (PPAR gamma): non-selective agonists. [Related pubchem assays (depositor defined):AID1300, AID1808, AID504735, AID631]; format: protein assay
# Sequence of Peroxisome proliferator-activated receptor gamma/Nuclear receptor coactivator 1 (P37231 whole entry): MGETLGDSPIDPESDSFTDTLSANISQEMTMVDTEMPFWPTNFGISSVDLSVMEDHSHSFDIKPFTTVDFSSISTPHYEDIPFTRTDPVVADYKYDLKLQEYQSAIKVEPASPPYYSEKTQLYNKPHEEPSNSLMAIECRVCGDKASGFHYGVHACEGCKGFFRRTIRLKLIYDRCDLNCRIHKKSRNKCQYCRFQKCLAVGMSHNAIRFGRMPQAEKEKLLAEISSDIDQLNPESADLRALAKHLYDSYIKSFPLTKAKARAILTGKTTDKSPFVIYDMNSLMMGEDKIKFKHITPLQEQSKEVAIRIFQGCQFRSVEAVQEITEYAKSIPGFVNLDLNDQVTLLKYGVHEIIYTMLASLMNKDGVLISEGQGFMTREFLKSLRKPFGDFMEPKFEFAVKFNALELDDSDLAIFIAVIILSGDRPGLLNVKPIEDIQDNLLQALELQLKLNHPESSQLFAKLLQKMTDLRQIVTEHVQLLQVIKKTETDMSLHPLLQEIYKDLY
# Sequence of Peroxisome proliferator-activated receptor gamma/Nuclear receptor coactivator 1 (Q15788 whole entry, further chain): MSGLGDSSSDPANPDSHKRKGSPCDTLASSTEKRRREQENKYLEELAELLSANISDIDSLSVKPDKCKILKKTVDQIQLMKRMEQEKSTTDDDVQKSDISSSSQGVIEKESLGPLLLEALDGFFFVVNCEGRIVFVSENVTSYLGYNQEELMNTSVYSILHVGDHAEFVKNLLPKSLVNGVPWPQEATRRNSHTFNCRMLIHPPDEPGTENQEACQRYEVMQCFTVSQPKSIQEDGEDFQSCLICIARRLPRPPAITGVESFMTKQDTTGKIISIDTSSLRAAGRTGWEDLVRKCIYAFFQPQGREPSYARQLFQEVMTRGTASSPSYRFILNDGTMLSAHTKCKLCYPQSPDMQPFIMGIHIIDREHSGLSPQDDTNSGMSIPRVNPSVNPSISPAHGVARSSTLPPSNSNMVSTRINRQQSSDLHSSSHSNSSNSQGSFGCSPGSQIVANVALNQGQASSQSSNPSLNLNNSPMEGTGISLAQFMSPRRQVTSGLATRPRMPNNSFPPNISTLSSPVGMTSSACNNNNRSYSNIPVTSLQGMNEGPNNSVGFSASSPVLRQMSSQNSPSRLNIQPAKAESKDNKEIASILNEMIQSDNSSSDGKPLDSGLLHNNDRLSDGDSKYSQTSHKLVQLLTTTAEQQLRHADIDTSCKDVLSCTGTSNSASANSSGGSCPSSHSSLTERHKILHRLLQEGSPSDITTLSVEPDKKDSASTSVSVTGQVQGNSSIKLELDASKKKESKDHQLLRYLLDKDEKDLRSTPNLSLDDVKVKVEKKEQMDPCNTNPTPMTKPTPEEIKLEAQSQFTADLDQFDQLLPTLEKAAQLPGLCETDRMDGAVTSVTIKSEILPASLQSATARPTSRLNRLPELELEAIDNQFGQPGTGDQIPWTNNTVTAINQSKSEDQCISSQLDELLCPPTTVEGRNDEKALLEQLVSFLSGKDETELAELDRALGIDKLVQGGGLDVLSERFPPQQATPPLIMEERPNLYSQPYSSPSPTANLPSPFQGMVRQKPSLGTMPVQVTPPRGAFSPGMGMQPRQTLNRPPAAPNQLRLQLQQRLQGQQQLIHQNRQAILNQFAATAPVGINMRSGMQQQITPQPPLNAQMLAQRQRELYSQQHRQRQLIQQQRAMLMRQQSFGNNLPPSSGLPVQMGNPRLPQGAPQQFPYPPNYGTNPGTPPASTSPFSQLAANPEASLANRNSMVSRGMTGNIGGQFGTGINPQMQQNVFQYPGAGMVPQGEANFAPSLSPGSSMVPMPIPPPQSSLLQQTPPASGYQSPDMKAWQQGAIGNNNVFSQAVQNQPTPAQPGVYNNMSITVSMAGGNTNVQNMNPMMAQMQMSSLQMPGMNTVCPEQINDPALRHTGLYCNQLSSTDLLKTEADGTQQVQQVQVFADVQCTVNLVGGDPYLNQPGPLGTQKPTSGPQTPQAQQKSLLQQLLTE
# [12] = molecular target: Peroxisome proliferator-activated receptor gamma/Nuclear receptor coactivator 3 (Homo sapiens, UniProt P37231); assay: TR-FRET dose response biochemical High Throughput Screening assay for agonists of the steroid receptor coactivator 3 (SRC-3) recruitment by the peroxisome proliferator-activated receptor gamma (PPAR gamma): non-selective agonists. [Related pubchem assays: 1301 (Confirmation screen.), 1048 (Primary screen.)]; format: functional
# [13] = molecular target: Peroxisome proliferator-activated receptor gamma/Nuclear receptor coactivator 2 (Homo sapiens, UniProt P37231); assay: TR-FRET dose response biochemical High Throughput Screening assay for agonists of the steroid receptor coactivator 2 (SRC-2) recruitment by the peroxisome proliferator-activated receptor gamma (PPAR gamma): non-selective agonists. [Related pubchem assays: 1297, 1032 ]; format: functional
# Sequence of Peroxisome proliferator-activated receptor gamma/Nuclear receptor coactivator 2 (P37231 whole entry): as the sequence (P37231 whole entry) above
# Sequence of Peroxisome proliferator-activated receptor gamma/Nuclear receptor coactivator 2 (Q15596 whole entry, further chain): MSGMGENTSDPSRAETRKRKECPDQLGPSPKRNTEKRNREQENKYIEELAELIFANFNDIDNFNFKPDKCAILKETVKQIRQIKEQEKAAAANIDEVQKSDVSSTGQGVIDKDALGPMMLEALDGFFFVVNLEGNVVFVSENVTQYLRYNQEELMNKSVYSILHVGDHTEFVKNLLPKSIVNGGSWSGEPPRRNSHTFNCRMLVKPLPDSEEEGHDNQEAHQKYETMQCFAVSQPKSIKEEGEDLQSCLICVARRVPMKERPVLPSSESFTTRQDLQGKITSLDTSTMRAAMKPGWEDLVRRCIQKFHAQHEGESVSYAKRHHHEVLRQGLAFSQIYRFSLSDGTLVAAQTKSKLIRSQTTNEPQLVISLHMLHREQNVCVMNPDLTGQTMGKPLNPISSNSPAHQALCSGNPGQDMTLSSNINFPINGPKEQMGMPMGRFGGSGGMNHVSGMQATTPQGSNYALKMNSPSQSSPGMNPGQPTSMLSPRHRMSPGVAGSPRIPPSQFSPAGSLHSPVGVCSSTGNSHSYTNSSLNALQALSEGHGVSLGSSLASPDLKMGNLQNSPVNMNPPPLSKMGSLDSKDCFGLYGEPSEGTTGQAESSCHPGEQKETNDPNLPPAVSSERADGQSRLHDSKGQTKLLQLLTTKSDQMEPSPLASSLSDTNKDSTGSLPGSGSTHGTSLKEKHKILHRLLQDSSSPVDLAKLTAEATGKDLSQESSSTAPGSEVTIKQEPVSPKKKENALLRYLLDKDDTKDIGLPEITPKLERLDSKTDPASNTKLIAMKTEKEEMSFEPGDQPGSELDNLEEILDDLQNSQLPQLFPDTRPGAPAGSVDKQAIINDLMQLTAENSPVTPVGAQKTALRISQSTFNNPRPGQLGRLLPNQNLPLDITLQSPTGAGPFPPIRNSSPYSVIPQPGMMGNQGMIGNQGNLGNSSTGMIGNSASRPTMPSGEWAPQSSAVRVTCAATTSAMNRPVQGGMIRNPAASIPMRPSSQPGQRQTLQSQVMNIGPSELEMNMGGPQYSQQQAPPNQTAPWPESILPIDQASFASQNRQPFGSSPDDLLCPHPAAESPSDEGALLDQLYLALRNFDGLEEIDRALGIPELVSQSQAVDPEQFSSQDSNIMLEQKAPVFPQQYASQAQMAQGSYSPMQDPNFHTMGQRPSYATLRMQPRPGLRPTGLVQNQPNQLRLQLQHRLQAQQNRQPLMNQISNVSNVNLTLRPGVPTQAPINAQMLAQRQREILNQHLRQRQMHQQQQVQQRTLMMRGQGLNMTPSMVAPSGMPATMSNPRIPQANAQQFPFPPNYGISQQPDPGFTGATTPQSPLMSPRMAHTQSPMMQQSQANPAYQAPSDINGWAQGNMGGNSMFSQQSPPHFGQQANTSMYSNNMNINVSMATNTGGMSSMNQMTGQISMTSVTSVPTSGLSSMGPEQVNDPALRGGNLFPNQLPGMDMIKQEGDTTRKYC
# [14] = test system: Vero; assay: cells; format: functional; details: Chlorocebus sabaeus
# [15] = intracellular Trypanosoma cruzi inhibitors in host cells – cell-based, plate reader, cherry-pick samples, set 3, dose response (AID 651818); format: functional;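 further: compounds incubated with infected cells for about four days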
# [16] = P. falciparum Dd2 growth inhibitors, dose response, SYBR Green, cherry-picked samples (AID 1159567); format: functional, cell-based
compound,measurement,setting,value
CN(C)CCCNc1nc(-c2ccccc2)nc2ccccc12,AC50,[1],28.8 µM (active)
Cc1cccc2cc3c(N)c(C(=O)N4CCc5ccccc54)sc3nc12,EC50,[2],> 99 µM (inactive)
same,EC50,[3],43.4 µM (inactive)
Cc1cccn2c(=O)c3cc(C#N)c(=O)n(CCCN4CCOCC4)c3nc12,AC50,[1],48.9 µM (active)
Cc1cc(/C=C2\C(=O)NC(=O)N(Cc3ccccc3)C2=O)c(C)n1C1CC1,EC50,[4],> 300 µM (not active)
same,EC50,[5],> 300 µM (not active)
same,EC50,[2],> 99 µM (inactive)
same,EC50,[3],23.4 µM (inactive)
COc1ccc(Nc2nc(N3CCCCC3)nc3ccccc23)c(OC)c1,EC50,[6],0.578 µM (active)
same,CC50,[7],> 40 µM (active)
same,EC50,[8],> 60 µM (inconclusive)
same,AC50,[9],280 µM (active)
same,EC50,[10],114 µM (active)
same,AC50,[1],62.2 µM (active)
COc1cccc(NC(=O)CSc2c3c(nc4ccccc24)CCCC3)c1,EC50,[11],> 79.4 µM (inactive)
same,EC50,[12],> 79.4 µM (not active)
same,EC50,[13],66.1 µM (not active)
same,AC50,[9],35.9 µM (active)
same,EC50,[10],3.36 µM (active)
COc1ccc(CNC(=O)C(C#N)c2nc3ccccc3nc2N2CCCC2)cc1 (stereo unspecified),EC50,[2],9.99 µM (active)
same,EC50,[3],14.5 µM (active)
COc1ccc(C(=O)CC(SCC(NC(C)=O)C(=O)O)c2ccc(Cl)cc2)cc1OC (stereo unspecified),CC50,[14],22.4 µM (active)
CN1CCc2[nH]c3ccc(C(=O)NN)cc3c2C1,AC50,[1],100 µM (inactive)
CN(C)c1ccc(C=C2C=Cc3ccccc32)cc1,EC50,[2],> 99 µM (inactive)
same,EC50,[3],20.7 µM (inactive)
COc1cc2cc(c1Cl)N(C)C(=O)CC(OC(=O)C(C)N(C)C(C)=O)C1(C)OC1C(C)C1CC(O)(NC(=O)O1)C(OC)C=CC=C(C)C2 (stereo unspecified),CC50,[14],< 0.05 µM (active)
Cc1ccc(S(=O)(=O)Nc2ccc3c(c2)CC(=O)N([C@@H](C)CO)C[C@@H](C)[C@@H](CN(C)Cc2ccc(C(=O)Nc4ccccc4N)cc2)O3)cc1,AC50,[15],2.94 µM (active)
C[C@@H]1CN([C@H](C)CO)C(=O)c2cccc(NC(=O)Nc3cccc4ccccc34)c2O[C@@H]1CN(C)C(=O)Nc1ccc(F)cc1,AC50,[15],3.81 µM (active)
same,AC50,[16],3.76 µM (active)
Cc1ccc(S(=O)(=O)Nc2cccc3c2O[C@@H](CN(C)Cc2ccc(C(=O)Nc4ccccc4N)cc2)[C@@H](C)CN([C@H](C)CO)C3=O)cc1,AC50,[15],5.8 µM (active)
COc1ccc(S(=O)(=O)Nc2ccc3c(c2)CC(=O)N([C@@H](C)CO)C[C@H](C)[C@H](CN(C)Cc2ccc(Cl)c(Cl)c2)O3)cc1,AC50,[15],5.64 µM (active)
